Results taken from ChEMBL document CHEMBL1141185, “4,6-Disubstituted 2,2-dimethylchromans structurally related to the K(ATP) channel opener cromakalim: design, synthesis, and effect on insulin release and vascular tone” (J Med Chem, 2005).

Experiments:
Format in all cases: functional
Rattus norvegicus [1] = species: Rattus norvegicus; test: Percentage of residual insulin secretion value in the pancreatic islets of rat after treatment with the compound at 10 uM concentration
Rattus norvegicus [2] = species: Rattus norvegicus; test: Myorelaxant activity of the compound against insulin secretion in the pancreatic islets ofrat; (activity expressed as ED50); settings: read-out: ED50 (the source's name)
Rattus norvegicus [3] = species: Rattus norvegicus; test: Myorelaxant effect on 80 mM KCl induced rat aorta rings determined; (activity expressed as ED50); settings: read-out: ED50 (the source's name)
Rattus norvegicus [4] = species: Rattus norvegicus; test: Myorelaxant effect on 30 mM KCl induced rat aorta rings determined; (activity expressed as ED50); settings: read-out: ED50 (the source's name)
Rattus norvegicus [5] = species: Rattus norvegicus; test: Myorelaxant effect on 30 mM KCl induced rat aorta rings determined after incubated with the 1 uM glibenclamide in the medium; (activity expressed as ED50); settings: read-out: ED50 (the source's name)
Rattus norvegicus [6] = species: Rattus norvegicus; test: Myorelaxant effect on 30 mM KCl induced rat aorta rings determined after incubated with the 10 uM glibenclamide in the medium; (activity expressed as ED50); settings: read-out: ED50 (the source's name)
Rattus norvegicus [7] = species: Rattus norvegicus; test: Myorelaxant effect of the compound on 80 mM KCl induced rat aorta rings determined; (activity expressed as ED50); settings: read-out: ED50 (the source's name)
Rattus norvegicus [8] = species: Rattus norvegicus; test: Inhibitory concentration against rat vascular smooth muscle tissue
Rattus norvegicus [9] = species: Rattus norvegicus; test: Myorelaxant effect of the compound on 30 mM KCl induced rat aorta rings determined after incubated with the 0 uM glibenclamide in the medium; (activity expressed as ED50); settings: read-out: ED50 (the source's name)
Rattus norvegicus [10] = species: Rattus norvegicus; test: Myorelaxant effect of the compound on 30 mM KCl induced rat aorta rings determined after incubated with the 1 uM glibenclamide in the medium; (activity expressed as ED50); settings: read-out: ED50 (the source's name)
Rattus norvegicus [11] = species: Rattus norvegicus; test: Myorelaxant effect of the compound on 30 mM KCl induced rat aorta rings determined after incubated with the 10 uM glibenclamide in the medium; (activity expressed as ED50); settings: read-out: ED50 (the source's name)

Row | Structure (SMILES) | Residual secretion (Rattus norvegicus [1]) [%] | EC50 (Rattus norvegicus [2]) [µM] | also measured
1 | CCNC(=O)NC1CC(C)(C)Oc2ccc(F)cc21 (stereo not given) | 106.2 | 42.9 | –
2 | CCNC(=S)NC1CC(C)(C)Oc2ccc(Br)cc21 (stereo not given) | 80.8 | 3.7 | –
3 | Cc1ccc(S(=O)(=O)NC(=O)NC2CC(C)(C)Oc3ccc(Cl)cc32)cc1 (stereo not given) | 103.5 | 63.6 | –
4 | CCNC(=O)NC1CC(C)(C)Oc2ccc(Cl)cc21 (stereo not given) | 89.5 | 6.8 | –
5 | CC(C)NC(=O)NC1CC(C)(C)Oc2ccc(F)cc21 (stereo not given) | 98.4 | 109 | –
6 | CC(=O)NC1CC(C)(C)Oc2ccc(F)cc21 (stereo not given) | 83.8 | 46.5 | –
7 | CC1(C)CC(NC(=O)NCc2ccccc2)c2cc(Cl)ccc2O1 (stereo not given) | 67.1 | 15.3 | –
8 | CCNC(=S)NC1CC(C)(C)Oc2ccc(F)cc21 (stereo not given) | 82.5 | 17.6 | –
9 | CCOC(=O)NC1CC(C)(C)Oc2ccc(Br)cc21 (stereo not given) | 88.8 | 25.7 | –
10 | CC1(C)CC(NC(=O)NCc2ccccc2)c2cc(Br)ccc2O1 (stereo not given) | 58.5 | > 300 | –
11 | CC1(C)CC(NC(=S)NCc2ccccc2)c2cc(Br)ccc2O1 (stereo not given) | 51.8 | 24.8 | –
12 | CC1(C)CC(NC(=O)NS(=O)(=O)c2ccccc2)c2cc(Cl)ccc2O1 (stereo not given) | 94.7 | 210 | –
13 | CC1(C)CC(NC(=S)NCc2ccccc2)c2cc(F)ccc2O1 (stereo not given) | 54.4 | 4.3 | –
14 | CC(=O)NC1CC(C)(C)Oc2ccc(Br)cc21 (stereo not given) | 94.2 | 6.4 | –
15 | CC1(C)CC(NC(=O)NS(=O)(=O)c2ccc(Cl)cc2)c2cc(Cl)ccc2O1 (stereo not given) | 89.2 | 51 | –
16 | CC(C)NC(=O)NC1CC(C)(C)Oc2ccc(Br)cc21 (stereo not given) | 79.1 | > 300 | –
17 | CCNC(=O)NC1CC(C)(C)Oc2ccc(Br)cc21 (stereo not given) | 91.5 | 7.6 | –
18 | CCOC(=O)NC1CC(C)(C)Oc2ccc(Cl)cc21 (stereo not given) | 83.3 | 38.5 | –
19 | CC1(C)CC(NC(=S)NCc2ccccc2)c2cc(Cl)ccc2O1 (stereo not given) | 45.4 | 20.2 | –
20 | CC(C)NC(=S)NC1CC(C)(C)Oc2ccc(Br)cc21 (stereo not given) | 58.9 | 8.7 | –
21 | CC1(C)CC(NC(=O)NCc2ccccc2)c2cc(F)ccc2O1 (stereo not given) | 80.8 | – | –
22 | CC(C)NC(=S)NC1CC(C)(C)Oc2ccc(Cl)cc21 (stereo not given) | 83.3 | 10.9 | –
23 | CCOC(=O)NC1CC(C)(C)Oc2ccc(F)cc21 (stereo not given) | 100.8 | 72.4 | –
24 | CC(C)NC(=O)NC1CC(C)(C)Oc2ccc(Cl)cc21 (stereo not given) | 86.3 | 144 | –
25 | CC(=O)NC1CC(C)(C)Oc2ccc(Cl)cc21 (stereo not given) | 100.8 | 6.6 | EC50 (Rattus norvegicus [3]): 84.2 µM; EC50 (Rattus norvegicus [4]): 6.3 µM; EC50 (Rattus norvegicus [5]): 33.8 µM; EC50 (Rattus norvegicus [6]): 44.6 µM
26 | CC(C)NC(=S)NC1CC(C)(C)Oc2ccc(F)cc21 (stereo not given) | 88.7 | 18.5 | –
27 | CCNC(=S)NC1CC(C)(C)Oc2ccc(Cl)cc21 (stereo not given) | 96.5 | 8.2 | –
28 | CC1(C)Oc2ccc(C#N)cc2C(N2CCCC2=O)C1O (stereo not given) [CROMAKALIM] | 94.7 | 0.13 | EC50 (Rattus norvegicus [7]): > 300 µM; IC50 (Rattus norvegicus [8]): 0.13 µM; EC50 (Rattus norvegicus [9]): 0.14 µM; EC50 (Rattus norvegicus [10]): 1.8 µM; EC50 (Rattus norvegicus [11]): 15.2 µM
29 | CC1=Nc2ccc(Cl)cc2S(=O)(=O)N1 [DIAZOXIDE] | 71.7 | 23.8 | IC50 (Rattus norvegicus [8]): 23.8 µM
30 | CC(N/C(=N\C#N)Nc1ccncc1)C(C)(C)C (stereo not given) [PINACIDIL ANHYDROUS] | 96 | 0.35 | IC50 (Rattus norvegicus [8]): 0.35 µM
